Reference: PubChem BioAssay AID1963445 (Molecular Pharmacology Branch, DTP, NCI, 2024)
Values joined by “and” are separate entries in the source; they are usually repeats but may differ in a detail not shown here. Equal values may be shown once.

Test system: MCF7 complex spheroid growth, % test/control
Test: Anticancer human tumor MCF7 cell line growth inhibition [Asc];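 note: spheroids exposed to compounds for 7 days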;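 for viability, T/C: 100% = DMSO vehicle control wells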
Conditions: for viability, T/C: stronger effect = lower value
In short: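 Concentration series start at each agent's clinical Cmax, or at 10 microM when none is established, and drop in half-log steps; agents are applied alone or together to complex spheroids built with HUVEC and hMSC.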

Q: Which viability, T/C (compound 0.000316 µM) does the source give for `NC1CCC(NC2CC2c2ccccc2)CC1` (centres undefined) here?
A: 89.7% and 112% and 107%

Q: And the viability, T/C (compound 0.001 µM)?
A: 115% and 132% and 136%

Q: What about the viability, T/C (compound 0.00316 µM) of the same compound?
A: 128% and 133% and 125%

Q: What about the viability, T/C (compound 0.01 µM) of the same compound?
A: 129% and 106% and 132%

Q: And the viability, T/C (compound 0.0316 µM)?
A: 136% and 104% and 108%

Q: What about the viability, T/C (compound 0.1 µM) of the same compound?
A: 102% and 147% and 137%

Q: And the IC50 (curve of compound)?
A: > 100 nM

Q: For `O=C(c1ccc(F)c(F)c1Nc1ccc(I)cc1F)N1CC(O)([C@@H]2CCCCN2)C1` + CNC(C)C(=O)NC1CN(S(=O)(=O)c2cccc(S(=O)(=O)N3CCC4CCC(C(=O)NC(c5ccccc5)c5ccccc5)N4C(=O)C(NC(=O)C(C)NC)C3)c2)CCC2CCC(C(=O)NC(c3ccccc3)c3ccccc3)N2C1=O, which IC50 (curve of first compound, second compound 0.00316 µM) is on record?
A: < 3.16 nM

Q: What about the IC50 (curve of first compound, second compound 0.01 µM) of the same compound?
A: < 3.16 nM

Q: What about the IC50 (curve of first compound, second compound 0.0316 µM) of the same compound?
A: < 3.16 nM

Q: And the IC50 (curve of first compound, second compound 0.1 µM)?
A: < 3.16 nM

Q: And the IC50 (curve of first compound, second compound 0.316 µM)?
A: < 3.16 nM

Q: And the IC50 (curve of first compound, second compound 1 µM)?
A: < 3.16 nM

Q: And the viability, T/C (second compound 0.00316 µM, first compound 0.00316 µM)?
A: 38.1%

Q: And the viability, T/C (second compound 0.00316 µM, first compound 0.01 µM)?
A: 41.5%

Q: What about the viability, T/C (second compound 0.00316 µM, first compound 0.0316 µM) of the same compound?
A: 34.6%

Q: And the viability, T/C (second compound 0.00316 µM, first compound 0.1 µM)?
A: 26%

Q: What about the viability, T/C (second compound 0.00316 µM, first compound 0.316 µM) of the same compound?
A: 19.4%

Q: What about the viability, T/C (second compound 0.00316 µM, first compound 1 µM) of the same compound?
A: 12.3%

Q: What about the viability, T/C (second compound 0.01 µM, first compound 0.00316 µM) of the same compound?
A: 17.3%

Q: What about the viability, T/C (second compound 0.01 µM, first compound 0.01 µM) of the same compound?
A: 14.8%

Q: What about the viability, T/C (second compound 0.01 µM, first compound 0.0316 µM) of the same compound?
A: 17.2%

Q: And the viability, T/C (second compound 0.01 µM, first compound 0.1 µM)?
A: 12.9%

Q: What about the viability, T/C (second compound 0.01 µM, first compound 0.316 µM) of the same compound?
A: 12.9%

Q: And the viability, T/C (second compound 0.01 µM, first compound 1 µM)?
A: 11.6%

Q: And the viability, T/C (second compound 0.0316 µM, first compound 0.00316 µM)?
A: 14.8%

Q: What about the viability, T/C (second compound 0.0316 µM, first compound 0.01 µM) of the same compound?
A: 15.4%

Q: What about the viability, T/C (second compound 0.0316 µM, first compound 0.0316 µM) of the same compound?
A: 13.3%

Q: What about the viability, T/C (second compound 0.0316 µM, first compound 0.1 µM) of the same compound?
A: 16.4%

Q: What about the viability, T/C (second compound 0.0316 µM, first compound 0.316 µM) of the same compound?
A: 10.7%

Q: What about the viability, T/C (second compound 0.0316 µM, first compound 1 µM) of the same compound?
A: 10.2%

Q: What about the viability, T/C (second compound 0.1 µM, first compound 0.00316 µM) of the same compound?
A: 13.2%

Q: What about the viability, T/C (second compound 0.1 µM, first compound 0.01 µM) of the same compound?
A: 13.5%

Q: And the viability, T/C (second compound 0.1 µM, first compound 0.0316 µM)?
A: 14.4%

Q: And the viability, T/C (second compound 0.1 µM, first compound 0.1 µM)?
A: 12.3%

Q: And the viability, T/C (second compound 0.1 µM, first compound 0.316 µM)?
A: 13.8%

Q: What about the viability, T/C (second compound 0.1 µM, first compound 1 µM) of the same compound?
A: 9.72%

Q: What about the viability, T/C (second compound 0.316 µM, first compound 0.00316 µM) of the same compound?
A: 13.3%

Q: And the viability, T/C (second compound 0.316 µM, first compound 0.01 µM)?
A: 14.3%

Q: And the viability, T/C (second compound 0.316 µM, first compound 0.0316 µM)?
A: 15.9%

Q: And the viability, T/C (second compound 0.316 µM, first compound 0.1 µM)?
A: 12.5%

Q: And the viability, T/C (second compound 0.316 µM, first compound 0.316 µM)?
A: 11.6%

Q: And the viability, T/C (second compound 0.316 µM, first compound 1 µM)?
A: 12.4%

Q: And the viability, T/C (second compound 1 µM, first compound 0.00316 µM)?
A: 14.6%

Q: And the viability, T/C (second compound 1 µM, first compound 0.01 µM)?
A: 13.8%

Q: And the viability, T/C (second compound 1 µM, first compound 0.0316 µM)?
A: 12.4%

Q: And the viability, T/C (second compound 1 µM, first compound 0.1 µM)?
A: 12.9%

Q: And the viability, T/C (second compound 1 µM, first compound 0.316 µM)?
A: 13%

Q: What about the viability, T/C (second compound 1 µM, first compound 1 µM) of the same compound?
A: 13.2%
